# Publication PMC6792352, “Limited Chemical Structural Diversity Found to Modulate Thyroid Hormone Receptor in the Tox21 Chemical Library” (Environmental Health Perspectives, 2019)
# Counter-ions that a name gives are not always drawn.
# Experiment: in vitro
# Details: rat, gh3-tre-luc cells, AC50 (uM) modified / 1000
row,SMILES,CC50 at 24 h
1,NC[C@H]1O[C@H](O[C@H]2[C@H](O)[C@@H](O[C@H]3O[C@H](CO)[C@@H](O)[C@H](N)[C@H]3O)[C@H](N)C[C@@H]2N)[C@H](N)[C@@H](O)[C@@H]1O [Bekanamycin sulfate],> 50 µM
2,CCCCCCCC/C=C\CCCCCCCC(=O)OCC(O)CO (centres unmarked) [Glyceryl monooleate],> 90 µM
3,CC(C)c1ccc(CO)cc1 [4-Isopropylbenzyl alcohol],> 90 µM
4,CCCCC(=O)Cl [Valeryl chloride],> 90 µM
5,N#Cc1cc2ccccc2c2ccccc12 [9-Cyanophenanthrene],> 90 µM
6,N#CCc1ccccc1[N+](=O)[O-] [(2-Nitrophenyl)acetonitrile],> 90 µM
7,CCC#N [Propionitrile],> 100 µM
8,CCC(CC)C(=O)O [2-Ethylbutyric acid],> 90 µM
9,NNC(=O)CP(=O)(c1ccccc1)c1ccccc1 [Fosenazide],> 50 µM
10,O=C(Nc1cccc([N+](=O)[O-])c1)c1cc2ccccc2cc1O [3-Hydroxy-N-(3-nitrophenyl)naphthalene-2-carboxamide],1.77 µM
11,N[C@@H](C(=O)N[C@@H]1C(=O)N2C(C(=O)O)=C(CSc3c[nH]nn3)CS[C@H]12)c1ccc(O)cc1 [Cefatrizine],> 50 µM
12,CC1=C(/C=C/C(C)=C/C=C/C(C)=C\C=O)C(C)(C)CCC1 [13-cis-Retinal],45.2 µM
13,O=[N+]([O-])c1cccc(Cl)c1 [1-Chloro-3-nitrobenzene],> 90 µM
14,CC(=O)CCC=C(C)C [6-Methyl-5-hepten-2-one],> 90 µM
15,O=C1NC2CCCCN2C12CCN(CCCN1c3ccccc3CCc3ccc(Cl)cc31)CC2 (centres unmarked) [Mosapramine],5.62 µM
16,CCCCCCc1ccc(N)cc1 [4-Hexylaniline],81.3 µM
17,CCCCCCCC [Octane],> 90 µM
18,O=C(O)CCCCCCCCCCCBr [12-Bromododecanoic acid],> 90 µM
19,CC1(C)C2(Cl)C(Cl)C(Cl)C(Cl)(C(Cl)Cl)C1(Cl)C2Cl (centres unmarked) [Strobane],21 µM
20,"C=COCC1CCC(COC=C)CC1 (centres unmarked) [1,4-Bis[(ethenyloxy)methyl]cyclohexane]",> 90 µM
21,C[n+]1cc2c3c(ccc2c2ccc4cc5c(cc4c21)OCO5)OCO3 [Sanguinarine],2.9 µM

row,SMILES,CC50 at 24 h
1,Cc1ncc(COP(=O)(O)O)c(CN)c1O [Pyridoxamine phosphate],> 50 µM
2,"CC(C)c1ccc(C(C)C)cc1 [1,4-Diisopropylbenzene]",> 90 µM
3,CCc1ccc(C)cc1 [4-Ethyltoluene],> 90 µM
4,CC(C)CC#N [Isovaleronitrile],> 90 µM
5,"CC(CO)(CO)CO [2-(Hydroxymethyl)-2-methyl-1,3-propanediol]",> 90 µM
6,NCC(=O)O [Glycine],> 50 µM
7,OCCc1ccncc1 [2-(Pyridin-4-yl)ethanol],> 90 µM
8,c1ccc2c(c1)c1cccc3ccc4cccc2c4c31 [Benzo(e)pyrene],> 90 µM
9,CCCCC1CCC(O)CC1 (centres unmarked) [4-Butylcyclohexanol],> 90 µM
10,O=C(Nc1ccc(Cl)c(Cl)c1)C1CC1 [Cypromid],> 50 µM
11,"CCCCCCCCC1CO1 (centres unmarked) [1,2-Epoxydecane]",> 90 µM
12,CC(C)=CCC/C(C)=C/CC/C(C)=C/CC/C(C)=C/CC1=C(C)C(=O)c2ccccc2C1=O [Menatetrenone],> 50 µM
13,CCCCCCCCCCCCO [1-Dodecanol],> 90 µM
14,CN(C)CCOC(C)(c1ccccc1)c1ccccn1 (centres unmarked) [Doxylamine succinate],> 50 µM
15,O=C(OCC(O)CO)c1ccccc1Nc1ccnc2cc(Cl)ccc12 (centres unmarked) [Glafenine hydrochloride],> 20 µM
16,COc1cc(NC(C)CCCN)c2ncccc2c1 (centres unmarked) [Primaquine diphosphate],15 µM
17,CC(=O)OCC(=O)Nc1cc(C#N)cc(NC(=O)COC(C)=O)c1Cl [Acreozast],> 50 µM
18,COCCOC(=O)C1=C(C)NC(C)=C(C(=O)OC/C=C/c2ccccc2)C1c1cccc([N+](=O)[O-])c1 (centres unmarked) [Cilnidipine],12.4 µM
19,CC(=O)OCC(COC(C)=O)OC(C)=O [Triacetin],> 90 µM
20,C=CCCC(=O)/C=C/C1C(C)=CCCC1(C)C (centres unmarked) [Allyl Ionone],80.7 µM
21,CNCCc1ccccn1 [Betahistine mesylate],> 20 µM

row,SMILES,CC50 at 24 h
1,CN=C=O [Methyl isocyanate],> 90 µM
2,OC[C@H]1OC(O)[C@H](O)[C@@H](O)[C@@H]1O (stereo partly drawn) [D-Glucose],> 90 µM
3,C=CCOc1cc(Cl)ccc1C(=O)NCCN(CC)CC [Alloclamide],9.52 µM
4,CC(C)(OO)c1ccccc1 [Cumene hydroperoxide],79.6 µM
5,CC(C)(O)C(=O)O [2-Hydroxyisobutyric acid],> 90 µM
6,Cl/C=C\C[N+]12CN3CN(CN(C3)C1)C2 [Chloroallyl methenamine chloride],> 90 µM
7,CCOCCOCCOCC [Diethylene glycol diethyl ether],> 90 µM
8,NC(=O)c1cnccn1 [Pyrazinamide],> 90 µM
9,Cc1nc(-c2ccccn2)ncc1C(=O)Nn1cc(C)c2cc(F)ccc21 [SAR102608],> 90 µM
10,CCC(C)C(=O)OCCc1ccccc1 (centres unmarked) [2-Phenylethyl 2-methylbutanoate],> 90 µM
11,NC(=O)c1ncn([C@@H]2O[C@H](CO)[C@@H](O)[C@H]2O)c1O [Mizoribine],> 50 µM
12,CN1CCC(=C2c3ccccc3CCc3sccc32)CC1 [Pizotyline],10.6 µM
13,CCOC(=O)COc1cc(-n2ncc(C(F)(F)F)c(C)c2=O)c(F)cc1Cl [Flufenpyr-ethyl],> 90 µM
14,C=CC(=O)N1CCOCC1 [1-(Morpholin-4-yl)prop-2-en-1-one],> 90 µM
15,"C=CC(C)CCCC(C)(C)O (centres unmarked) [1,1,5-Trimethyl-6-heptenol]",> 90 µM
16,OCCNCCO [Diethanolamine],> 90 µM
17,O=C1C(c2[nH]c3ccccc3c2O)=Nc2ccccc21 [Indigo dye],> 90 µM
18,C[C@]12CC[C@H](O)CC1=CC[C@@H]1[C@@H]2CC[C@]2(C)C(=O)CC[C@@H]12 [Dehydroepiandrosterone],> 90 µM
19,O=C(Nc1ccc(/C=C/c2ccc(NC(=O)c3cc(S(=O)(=O)O)c4cccnc4c3O)cc2S(=O)(=O)O)c(S(=O)(=O)O)c1)c1cc(S(=O)(=O)O)c2cccnc2c1O [Ubistatin A],> 50 µM
20,COc1ccc2c3c1O[C@H]1C(=O)CC[C@H]4[C@@H](C2)N(C)CC[C@]314 [Hydrocodone phosphate (2:3) monohydrate],> 50 µM

# Same assay, conditions: rat, gh3-tre-luc cells, AC50 (uM) modified / 1000, Tox21_110001=Tox21_111146; viability, 1 nM T3 present, 24 h
row,SMILES,CC50 at 24 h
1,Oc1ccc(Cl)cc1Cc1ccccc1 [Clorophene],23.9 µM

# Same assay, conditions: rat, gh3-tre-luc cells, AC50 (uM) modified / 1000, Tox21_110001=Tox21_112931; viability, 1 nM T3 present, 24 h
row,SMILES,CC50 at 24 h
1,CCc1cc2c(s1)-n1c(C)nnc1CN=C2c1ccccc1Cl [Etizolam],> 50 µM

# Same assay, conditions: rat, gh3-tre-luc cells, AC50 (uM) modified / 1000, Tox21_110001=Tox21_113271; viability, 1 nM T3 present, 24 h
row,SMILES,CC50 at 24 h
1,CCOC(=O)NC(C)(C)Cc1ccc(Cl)cc1 [Cloforex],> 50 µM

# Same assay, conditions: rat, gh3-tre-luc cells, AC50 (uM) modified / 1000, Tox21_110001=Tox21_200640; viability, 1 nM T3 present, 24 h
row,SMILES,CC50 at 24 h
1,"C=C(Cl)CCl [2,3-Dichloro-1-propene]",> 90 µM

# Same assay, conditions: rat, gh3-tre-luc cells, AC50 (uM) modified / 1000, Tox21_110001=Tox21_202217; viability, 1 nM T3 present, 24 h
row,SMILES,CC50 at 24 h
1,CC[N+](=O)[O-] [Nitroethane],> 90 µM

# Same assay, conditions: rat, gh3-tre-luc cells, AC50 (uM) modified / 1000, Tox21_110001=Tox21_202985; viability, 1 nM T3 present, 24 h
row,SMILES,CC50 at 24 h
1,Oc1ccc(Cl)cc1Cc1ccccc1 [Clorophene],43.2 µM

# Same assay, conditions: rat, gh3-tre-luc cells, AC50 (uM) modified / 1000, Tox21_110001=Tox21_301421; viability, 1 nM T3 present, 24 h
row,SMILES,CC50 at 24 h
1,CCOP(=S)(OCC)SCn1nnc2ccccc2c1=O [Azinphos-ethyl],> 90 µM

# Same assay, conditions: rat, gh3-tre-luc cells, AC50 (uM) modified / 1000, Tox21_110001=Tox21_302319; viability, 1 nM T3 present, 24 h
row,SMILES,CC50 at 24 h
1,O=S(=O)(O)C(F)(F)C(F)(F)C(F)(F)C(F)(F)C(F)(F)C(F)(F)C(F)(F)C(F)(F)F [Lithium perfluorooctanesulfonate],52.3 µM

# Same assay, conditions: rat, gh3-tre-luc cells, AC50 (uM) modified / 1000, Tox21_110001=Tox21_400046; viability, 1 nM T3 present, 24 h
row,SMILES,CC50 at 24 h
1,Oc1ccc(Cl)cc1Cc1ccccc1 [Clorophene],61.9 µM
